# Source: patent US20030055104A1, “Method, composition and kit to remove lice ova from the hair” (priority 2000, published 2003)
# Key:
# [1] = test system: nit attached to human hair strand; assay: Force required to dislodge a nit from a treated hair strand with a nit comb (INSTRON 1123 / CORREX Gram Gage); parameters: species or system lice; conditions: in vitro studies
# Protocol: FIG. 1 is a diagram of the test setup whereby the force required to dislodge a nit from a human hair strand with a nit comb was measured.
# FIG. 2 is a view showing the positioning of the nit and hair strand between the teeth of the comb shown in the test setup of FIG. 1.
# The nit-loosening effectiveness of the novel compositions and the methods of treatment employing them were tested extensively using an INSTRON® 1123 Universal Testing Instrument (Instron Corp. Canton, Mass.). This instrument, in conjunction with a CORREX® Gram Gage (SPI, Switzerland), measures the force required to loosen nits from a hair shaft and records it on paper.
# Laboratory tests were performed to measure the decrease in the combing force required to remove nits from hair strands treated with various compositions of the invention as compared with controls and with prior art egg-loosening compositions.
# 1. Hair strand 10 with nit 12 attached.
# 2. Fine tooth plastic nit comb 14.
# 3. Controls and test compositions.
# 4. INSTRON® 1123 Universal Testing Instrument 16 (Instron Corp., Canton, Mass.) with a 0-50 kg load cell 18.
# 5. CORREX® Gram Gage 20-2-15 g with flat tip (SPI, Switzerland).
# 6. Clamp plate assembly 22.
# 7. […]
# e) Start the Instron, and the force required to loosen the nits will be recorded by the paper chart recorder 30, and can also be read on the Gram Gage 20. […]
# [2] = cited from earlier work
structure (smiles),measurement,setting,value
"CO[C@H]1CO[C@H]2[C@@H]1OC[C@H]2OC [Dimethyl isosorbide, 1,4:3,6 dianhydro-2,5-di-o-methyl-D-glucitol]",nit-loosening effectiveness (in words),[1],good nit-loosening utility
same,solubility (in words),[2],water and oil-soluble
